Laboratory results published in patent publication US20060069132A1, “Azolecarboxamide herbicides” (priority 2004, published 2006).

How the values were obtained:
barnyardgrass [1] = experiment: Test B pre-/postemergence herbicide test; format: in vivo, Echinochloa crus-galli; settings: for Barnyardgrass plant response rating: postemergence, scale 0 (no effect) to 100 (complete control)
In short: (§1)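 Flooded paddy rice and barnyardgrass were treated at the 2-leaf stage; upland plantings received compound either on sown seed or on 1- to 4-leaf seedlings. All were kept 13–15 days in a greenhouse and scored visually, 0–100, relative to untreated plants.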

wheat = experiment: Test B postemergence herbicide test; format: in vivo, Triticum aestivum; set-up: key to Wheat plant response rating: 0 = no effect, 100 = complete control; settings: postemergence, visual rating, scale 0 (no effect) to 100 (complete control)
In short: (§2)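 Formulated test chemicals went onto postemergence plants measuring 2 to 18 cm, at one to four leaves. For the paddy assay, species had reached two leaves. Scoring took place 13–15 days later by eye, relative to untreated plants, using 0 for no effect up to 100 for full control.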

barnyardgrass [2] = experiment: Test B flooded paddy test; format: in vivo, Echinochloa crus-galli; settings: 1000 g ai/ha, visual rating, scale 0 to 100 (0 no effect, 100 complete control), 13 to 15 days
In short: (§3)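 After treating 2-leaf paddy plants or 2–18 cm postemergence plants (1 to 4 leaves) with formulated chemical, researchers kept them in a greenhouse for 13–15 days. Effects were judged visually versus controls: 0 indicates none, 100 total control.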

rice [3] = experiment: Test B pre-/postemergence herbicide test; format: in vivo, Oryza sativa; settings: 0 = no effect, 100 = complete control, preemergence
In short: (§4)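 Seeds were planted and treated preemergence with compounds formulated in a non-phytotoxic solvent mixture containing surfactant, while plants at the 1- to 4-leaf stage (2 to 18 cm) received postemergence sprays. Flooded paddy plants were grown to the 2-leaf stage. After 13 to 15 days in a greenhouse, injury was visually rated 0–100 against untreated controls.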

ducksalad [4] = experiment: Test C flooded paddy test; format: in vivo, Heteranthera limosa
morningglory = experiment: Test B pre-/postemergence herbicide test; format: in vivo, Ipomoea coccinea; settings: for Morningglory plant response rating: postemergence, scale 0 (no effect) to 100 (complete control)
In short: as §1

lambsquarters = experiment: Test B pre-/postemergence herbicide test; format: in vivo, Chenopodium album; settings: for Lambsquarters plant response rating: postemergence, visual rating, scale 0 (no effect) to 100 (complete control)
In short: as §4

corn = experiment: Test B pre-/postemergence herbicide test; format: in vivo, Zea mays; settings: for Corn plant response rating: postemergence, scale 0 (no effect) to 100 (complete control)
In short: as §4

large crabgrass = experiment: Test B pre-/postemergence herbicide test; format: in vivo, Digitaria sanguinalis; settings: for Crabgrass, Large plant response rating: postemergence, scale 0 (no effect) to 100 (complete control)
In short: as §4

rice [5] = experiment: Test B flooded paddy test; format: in vivo, Oryza sativa; settings: 1000 g ai/ha, visual rating, scale 0 to 100 (0 no effect, 100 complete control), 13 to 15 days
In short: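 Visual ratings, 0 (no effect) to 100 (complete control), made versus controls after 13–15 d greenhouse. Paddy plants treated at 2-leaf stage; postemergence plants at 1- to 4-leaf stage, 2–18 cm tall.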

barnyardgrass [6] = experiment: Test C flooded paddy test; format: in vivo, Echinochloa crus-galli
In short: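 Greenhouse test with a 12–14 day hold after application and visual comparison with controls. Emerged plants were 1- to 4-leaf stage (2–18 cm) when sprayed postemergence, and the paddy barnyardgrass was at 2 leaves under flooded conditions. 100 = complete control.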

rice [7] = experiment: Test C flooded paddy test; format: in vivo, Oryza sativa
In short: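 Postemergence sprays applied to plants 2 to 18 cm tall (1- to 4-leaf stage); paddy species grown to 2-leaf stage under flooding. After 12 to 14 days in greenhouse, visual rating versus untreated controls on 0–100 scale (0 no effect, 100 complete control).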

Surinam grass = experiment: Test B pre-/postemergence herbicide test; format: in vivo, Urochloa decumbens; settings: for Surinam Grass plant response rating: postemergence, scale 0 (no effect) to 100 (complete control)
In short: as §4

cocklebur = experiment: Test B pre-/postemergence herbicide test; format: in vivo, Xanthium strumarium; settings: for Cocklebur plant response rating: postemergence, scale 0 (no effect) to 100 (complete control)
In short: as §1

[8] = tested on: small flower umbrella sedge; experiment: Test B flooded paddy test; format: in vivo, Cyperus difformis; settings: 1000 g ai/ha, visual rating, scale 0 to 100 (0 no effect, 100 complete control), 13 to 15 days
In short: as §3

ducksalad [9] = experiment: Test B flooded paddy test; format: in vivo, Heteranthera limosa; settings: 1000 g ai/ha, visual rating, scale 0 to 100 (0 no effect, 100 complete control), 13 to 15 days
In short: as §3

pigweed = experiment: Test B pre-/postemergence herbicide test; format: in vivo, Amaranthus retroflexus; settings: for Pigweed plant response rating: postemergence, scale 0 (no effect) to 100 (complete control)
In short: as §4

velvetleaf = experiment: Test B pre-/postemergence herbicide test; format: in vivo, Abutilon theophrasti; settings: for Velvetleaf plant response rating: postemergence, scale 0 (no effect) to 100 (complete control)
In short: as §4

[10] = tested on: smallflower umbrella sedge; experiment: Test C flooded paddy test; format: in vivo, Cyperus difformis
wild oat = experiment: Test B postemergence herbicide test; format: in vivo, Avena fatua; settings: postemergence, visual rating, scale 0 (no effect) to 100 (complete control)
In short: as §2

giant foxtail = experiment: Test B pre-/postemergence herbicide test; format: in vivo, Setaria faberi; settings: for Foxtail, Giant plant response rating: postemergence, scale 0 (no effect) to 100 (complete control)
In short: as §4

blackgrass = experiment: Test B postemergence herbicide test; format: in vivo, Alopecurus myosuroides; settings: postemergence, visual rating, scale 0 (no effect) to 100 (complete control)
In short: as §3

[11] = 125 g ai/ha, 0 = no effect, 100 = complete control, preemergence
[12] = 500 g ai/ha, visual rating, 0 = no effect, 100 = complete control, preemergence
[13] = 62 g ai/ha, scale 0 to 100 (0 no effect, 100 complete control)
[14] = 125 g ai/ha, scale 0 to 100 (0 no effect, 100 complete control)
[15] = 250 g ai/ha, scale of 0 to 100, 0 is no effect, 100 is complete control
[16] = 500 g ai/ha, visual rating after 12 to 14 days, scale 0 to 100 (0 no effect, 100 complete control)

With `CCc1nc(C(C)(C)C)sc1C(=O)Nc1cc(C(=O)N(C)C)ccc1F` [Compound 225] the “Barnyardgrass plant response rating (0 to 100 scale)” value (barnyardgrass [1]; [11]) was 60, the “Plant response rating, Barnyardgrass” value (barnyardgrass [1]; [12]) was 90 and the “Barnyardgrass plant response rating” value (barnyardgrass [1]; 125 g ai/ha, visual rating) was 10. The “Barnyardgrass plant response rating” value (barnyardgrass [1]; 500 g ai/ha, visual rating) was 30, the “Wheat plant response rating” value (wheat; 125 g ai/ha) was 10 and the “Wheat plant response rating” value (wheat; 500 g ai/ha) was 30. The “Barnyardgrass plant response rating” value (barnyardgrass [2]) was 90, the “Rice plant response rating (0 to 100 scale)” value (rice [3]; 125 g ai/ha) was 60 and the “Plant response rating, Rice” value (rice [3]; 500 g ai/ha, visual rating) was 90. For the same compound, the “Ducksalad plant response rating” value (ducksalad [4]; [13]) was 10, the “Ducksalad plant response rating” value (ducksalad [4]; [14]) was 75 and the “Ducksalad plant response rating” value (ducksalad [4]; [15]) was 85. For the same compound, the “Plant response rating, Ducksalad” value (ducksalad [4]; [16]) was 85, the “Morningglory plant response rating (0 to 100 scale)” value (morningglory; [11]) was 0 and the “Plant response rating, Morningglory” value (morningglory; [12]) was 10. For the same compound, the “Morningglory plant response rating” value (morningglory; 125 g ai/ha, visual rating) was 10, the “Morningglory plant response rating” value (morningglory; 500 g ai/ha, visual rating) was 40 and the “Lambsquarters plant response rating (0 to 100 scale)” value (lambsquarters; [11]) was 80. The “Lambsquarters plant response rating” value (lambsquarters; 125 g ai/ha) was 50, the “Lambsquarters plant response rating” value (lambsquarters; 500 g ai/ha) was 70 and the “Corn plant response rating (0 to 100 scale)” value (corn; [11]) was 30. For the same compound, the “Plant response rating, Corn” value (corn; [12]) was 70, the “Corn plant response rating” value (corn; 125 g ai/ha, visual rating) was 10 and the “Corn plant response rating” value (corn; 500 g ai/ha, visual rating) was 20. For the same compound, the “Crabgrass, Large plant response rating (0 to 100 scale)” value (large crabgrass; [11]) was 10, the “Plant response rating, Crabgrass, Large” value (large crabgrass; [12]) was 100 and the “Crabgrass, Large plant response rating” value (large crabgrass; 125 g ai/ha, visual rating) was 10. For the same compound, the “Crabgrass, Large plant response rating” value (large crabgrass; 500 g ai/ha, visual rating) was 20, the “Rice plant response rating” value (rice [5]) was 90 and the “Barnyardgrass plant response rating” value (barnyardgrass [6]; [13]) was 35. For the same compound, the “Barnyardgrass plant response rating” value (barnyardgrass [6]; [14]) was 60, the “Barnyardgrass plant response rating” value (barnyardgrass [6]; [15]) was 80 and the “Plant response rating, Barnyardgrass” value (barnyardgrass [6]; [16]) was 90. The “Rice plant response rating” value (rice [7]; [13]) was 55, the “Rice plant response rating” value (rice [7]; [14]) was 70 and the “Rice plant response rating” value (rice [7]; [15]) was 75. For the same compound, the “Plant response rating, Rice” value (rice [7]; [16]) was 80, the “Surinam Grass plant response rating (0 to 100 scale)” value (Surinam grass; [11]) was 20 and the “Plant response rating, Surinam Grass” value (Surinam grass; [12]) was 90. For the same compound, the “Surinam Grass plant response rating” value (Surinam grass; 125 g ai/ha, visual rating) was 10, the “Surinam Grass plant response rating” value (Surinam grass; 500 g ai/ha, visual rating) was 20 and the “Cocklebur plant response rating (0 to 100 scale)” value (cocklebur; [11]) was 0. The “Plant response rating, Cocklebur” value (cocklebur; [12]) was 40, the “Cocklebur plant response rating” value (cocklebur; 125 g ai/ha, visual rating) was 20 and the “Cocklebur plant response rating” value (cocklebur; 500 g ai/ha, visual rating) was 20. The “Sedge, Umbrella plant response rating” value [8] was 90, the “Ducksalad plant response rating” value (ducksalad [9]) was 90 and the “Pigweed plant response rating (0 to 100 scale)” value (pigweed; [11]) was 70. The “Plant response rating, Pigweed” value (pigweed; [12]) was 100, the “Pigweed plant response rating” value (pigweed; 125 g ai/ha, visual rating) was 40 and the “Pigweed plant response rating” value (pigweed; 500 g ai/ha, visual rating) was 70. For the same compound, the “Velvetleaf plant response rating (0 to 100 scale)” value (velvetleaf; [11]) was 30, the “Plant response rating, Velvetleaf” value (velvetleaf; [12]) was 100 and the “Velvetleaf plant response rating” value (velvetleaf; 125 g ai/ha, visual rating) was 30. For the same compound, the “Velvetleaf plant response rating” value (velvetleaf; 500 g ai/ha, visual rating) was 40, the “Sedge, Umbrella plant response rating” value [10, 13] was 65 and the “Sedge, Umbrella plant response rating” value [10, 14] was 75. The “Sedge, Umbrella plant response rating” value [10, 15] was 75, the “Plant response rating, Sedge, Umbrella” value [10, 16] was 80 and the “Oat, Wild plant response rating” value (wild oat; 125 g ai/ha) was 0. For the same compound, the “Oat, Wild plant response rating” value (wild oat; 500 g ai/ha) was 30, the “Foxtail, Giant plant response rating (0 to 100 scale)” value (giant foxtail; [11]) was 60 and the “Plant response rating, Foxtail, Giant” value (giant foxtail; [12]) was 100. For the same compound, the “Foxtail, Giant plant response rating” value (giant foxtail; 125 g ai/ha, visual rating) was 10, the “Foxtail, Giant plant response rating” value (giant foxtail; 500 g ai/ha, visual rating) was 20 and the “Blackgrass plant response rating” value (blackgrass; 125 g ai/ha) was 20. For the same compound, the “Blackgrass plant response rating” value (blackgrass; 500 g ai/ha) was 40.
